# In ChEMBL document CHEMBL4507273 (2021):
# Columns and labels:
# [1] = target: Tyrosine-protein kinase receptor UFO (Homo sapiens) (UniProt P30530); details: Compound concentration 1000.0 nM
# [2] = target: Glycogen synthase kinase-3 alpha (Homo sapiens) (UniProt P49840); details: Compound concentration 1000.0 nM
# [3] = target: Mitogen-activated protein kinase kinase kinase 20 (Homo sapiens) (UniProt Q9NYL2); details: Compound concentration 1000.0 nM
# [4] = target: Calcium/calmodulin-dependent protein kinase type II subunit alpha (Homo sapiens) (UniProt Q9UQM7); details: Compound concentration 1000.0 nM
# [5] = target: Serine/threonine-protein kinase PLK4 (Homo sapiens) (UniProt O00444); details: Compound concentration 1000.0 nM
# [6] = target: Mitogen-activated protein kinase kinase kinase 13 (Homo sapiens) (UniProt O43283); details: Compound concentration 1000.0 nM
# [7] = target: Death-associated protein kinase 2 (Homo sapiens) (UniProt Q9UIK4); details: Compound concentration 1000.0 nM
# [8] = target: NT-3 growth factor receptor (Homo sapiens) (UniProt Q16288); details: Compound concentration 1000.0 nM
# [9] = target: Serine/threonine-protein kinase PAK 3 (Homo sapiens) (UniProt O75914); details: Compound concentration 1000.0 nM
# [10] = target: Tyrosine-protein kinase Srms (Homo sapiens) (UniProt Q9H3Y6); details: Compound concentration 1000.0 nM
# [11] = target: Mitogen-activated protein kinase kinase kinase kinase 1 (Homo sapiens) (UniProt Q92918); details: Compound concentration 1000.0 nM
# [12] = target: Serine/threonine-protein kinase Nek9 (Homo sapiens) (UniProt Q8TD19); details: Compound concentration 1000.0 nM
# [13] = target: Serine/threonine-protein kinase TAO3 (Homo sapiens) (UniProt Q9H2K8); details: Compound concentration 1000.0 nM
# [14] = target: MAP kinase-interacting serine/threonine-protein kinase 2 (Homo sapiens) (UniProt Q9HBH9); details: Compound concentration 1000.0 nM
# [15] = target: Serine/threonine-protein kinase 36 (Homo sapiens) (UniProt Q9NRP7); details: Compound concentration 1000.0 nM
# [16] = target: ALK tyrosine kinase receptor (Homo sapiens) (UniProt Q9UM73); details: Compound concentration 1000.0 nM
# [17] = target: Vascular endothelial growth factor receptor 1 (Homo sapiens) (UniProt P17948); details: Compound concentration 1000.0 nM
# [18] = target: Phosphatidylinositol 4,5-bisphosphate 3-kinase catalytic subunit gamma isoform (Homo sapiens) (UniProt P48736); details: Compound concentration 1000.0 nM
# [19] = target: T1, 5-hydroxytryptamine receptor 1A (Homo sapiens) (UniProt P08908); details: Compound concentration 10.0 uM
# T1 sequence (whole entry): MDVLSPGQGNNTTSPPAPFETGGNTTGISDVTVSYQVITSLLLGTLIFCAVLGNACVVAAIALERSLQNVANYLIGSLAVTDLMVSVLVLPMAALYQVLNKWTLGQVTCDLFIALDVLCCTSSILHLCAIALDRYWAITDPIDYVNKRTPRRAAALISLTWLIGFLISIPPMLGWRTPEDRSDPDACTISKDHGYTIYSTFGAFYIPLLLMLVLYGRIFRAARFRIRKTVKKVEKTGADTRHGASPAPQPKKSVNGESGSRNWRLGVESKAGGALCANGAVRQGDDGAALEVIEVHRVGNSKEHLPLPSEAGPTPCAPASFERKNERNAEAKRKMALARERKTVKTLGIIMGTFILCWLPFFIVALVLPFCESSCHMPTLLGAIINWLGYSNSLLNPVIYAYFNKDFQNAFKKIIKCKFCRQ
# Histamine H4 receptor = Histamine H4 receptor (Homo sapiens, UniProt Q9H3N8); details: Compound concentration 10.0 uM
# [20] = target: Myosin-IIIb (Homo sapiens) (UniProt Q8WXR4); details: Compound concentration 1000.0 nM
# [21] = test system: Tyrosine-protein kinase ABL1 (Homo sapiens), P00519 [Y253F]; details: Compound concentration 1000.0 nM
# [22] = target: Mitogen-activated protein kinase kinase kinase 3 (Homo sapiens) (UniProt Q99759); details: Compound concentration 1000.0 nM
# [23] = test system: Proto-oncogene tyrosine-protein kinase receptor Ret (Homo sapiens), P07949 [V804M]; details: Compound concentration 1000.0 nM
# [24] = test system: Receptor-type tyrosine-protein kinase FLT3 (Homo sapiens), P36888 [D835H]; details: Compound concentration 1000.0 nM
# [25] = target: Death-associated protein kinase 3 (Homo sapiens) (UniProt O43293); details: Compound concentration 1000.0 nM
# [26] = target: Muscarinic acetylcholine receptor M2 (Homo sapiens, UniProt P08172); test: GPCRScan assay: inhibition of M2; design: radioligand conc. used [nm] 0.2 – 1.0, parental cells stable CHO
# [27] = target: Cyclin-dependent kinase 4 (Homo sapiens) (UniProt P11802); details: Compound concentration 1000.0 nM
# [28] = target: T2, Muscarinic acetylcholine receptor M1 (Homo sapiens) (UniProt P11229); details: Compound concentration 10.0 uM
# T2 sequence (whole entry): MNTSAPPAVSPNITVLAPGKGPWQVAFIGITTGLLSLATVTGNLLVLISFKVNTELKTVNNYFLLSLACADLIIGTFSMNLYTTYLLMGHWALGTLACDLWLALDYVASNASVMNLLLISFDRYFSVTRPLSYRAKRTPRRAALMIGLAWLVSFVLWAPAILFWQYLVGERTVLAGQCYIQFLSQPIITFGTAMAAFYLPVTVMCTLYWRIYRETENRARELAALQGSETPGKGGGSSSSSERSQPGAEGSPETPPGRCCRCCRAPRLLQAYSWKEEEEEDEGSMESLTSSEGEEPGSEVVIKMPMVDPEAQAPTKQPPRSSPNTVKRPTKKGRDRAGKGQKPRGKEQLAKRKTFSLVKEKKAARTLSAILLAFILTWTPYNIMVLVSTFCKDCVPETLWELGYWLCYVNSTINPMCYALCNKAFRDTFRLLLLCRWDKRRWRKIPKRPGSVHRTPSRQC
# [29] = target: 5-hydroxytryptamine receptor 1D (Homo sapiens, UniProt P28221); test: GPCRScan assay: inhibition of 5-HT1D; design: radioligand conc. used [nm] 1.0 – 2.0, parental cells HEKT
# [30] = target: Ephrin type-A receptor 4 (Homo sapiens) (UniProt P54764); details: Compound concentration 1000.0 nM
# [31] = target: Platelet-derived growth factor receptor alpha (Homo sapiens) (UniProt P16234); details: Compound concentration 1000.0 nM
# [32] = target: Ribosomal protein S6 kinase alpha-6 (Homo sapiens) (UniProt Q9UK32); details: Compound concentration 1000.0 nM
# Sequence of 5-hydroxytryptamine receptor 1D (P28221 whole entry): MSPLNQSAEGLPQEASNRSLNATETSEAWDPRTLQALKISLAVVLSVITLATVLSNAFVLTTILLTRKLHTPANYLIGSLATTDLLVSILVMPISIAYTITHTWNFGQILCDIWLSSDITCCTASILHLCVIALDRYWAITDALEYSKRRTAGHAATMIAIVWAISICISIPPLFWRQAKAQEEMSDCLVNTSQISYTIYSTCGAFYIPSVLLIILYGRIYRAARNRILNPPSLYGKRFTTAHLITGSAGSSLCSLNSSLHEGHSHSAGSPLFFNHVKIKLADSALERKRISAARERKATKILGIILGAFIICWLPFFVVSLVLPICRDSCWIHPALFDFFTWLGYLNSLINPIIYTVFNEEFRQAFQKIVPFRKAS
# Sequence of Histamine H4 receptor (Q9H3N8 whole entry): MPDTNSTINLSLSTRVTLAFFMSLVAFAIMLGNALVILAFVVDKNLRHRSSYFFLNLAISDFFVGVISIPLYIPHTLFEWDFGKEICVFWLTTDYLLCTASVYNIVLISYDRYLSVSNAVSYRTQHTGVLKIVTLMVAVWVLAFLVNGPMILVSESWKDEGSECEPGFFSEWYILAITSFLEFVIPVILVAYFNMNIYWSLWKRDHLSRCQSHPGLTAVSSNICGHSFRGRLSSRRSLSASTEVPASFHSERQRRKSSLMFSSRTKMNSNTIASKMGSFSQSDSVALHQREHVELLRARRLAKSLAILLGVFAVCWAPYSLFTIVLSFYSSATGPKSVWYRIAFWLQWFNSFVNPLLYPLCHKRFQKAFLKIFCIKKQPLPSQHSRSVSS
# Sequence of Serine/threonine-protein kinase 36 (Homo sapiens) (Q9NRP7 whole entry): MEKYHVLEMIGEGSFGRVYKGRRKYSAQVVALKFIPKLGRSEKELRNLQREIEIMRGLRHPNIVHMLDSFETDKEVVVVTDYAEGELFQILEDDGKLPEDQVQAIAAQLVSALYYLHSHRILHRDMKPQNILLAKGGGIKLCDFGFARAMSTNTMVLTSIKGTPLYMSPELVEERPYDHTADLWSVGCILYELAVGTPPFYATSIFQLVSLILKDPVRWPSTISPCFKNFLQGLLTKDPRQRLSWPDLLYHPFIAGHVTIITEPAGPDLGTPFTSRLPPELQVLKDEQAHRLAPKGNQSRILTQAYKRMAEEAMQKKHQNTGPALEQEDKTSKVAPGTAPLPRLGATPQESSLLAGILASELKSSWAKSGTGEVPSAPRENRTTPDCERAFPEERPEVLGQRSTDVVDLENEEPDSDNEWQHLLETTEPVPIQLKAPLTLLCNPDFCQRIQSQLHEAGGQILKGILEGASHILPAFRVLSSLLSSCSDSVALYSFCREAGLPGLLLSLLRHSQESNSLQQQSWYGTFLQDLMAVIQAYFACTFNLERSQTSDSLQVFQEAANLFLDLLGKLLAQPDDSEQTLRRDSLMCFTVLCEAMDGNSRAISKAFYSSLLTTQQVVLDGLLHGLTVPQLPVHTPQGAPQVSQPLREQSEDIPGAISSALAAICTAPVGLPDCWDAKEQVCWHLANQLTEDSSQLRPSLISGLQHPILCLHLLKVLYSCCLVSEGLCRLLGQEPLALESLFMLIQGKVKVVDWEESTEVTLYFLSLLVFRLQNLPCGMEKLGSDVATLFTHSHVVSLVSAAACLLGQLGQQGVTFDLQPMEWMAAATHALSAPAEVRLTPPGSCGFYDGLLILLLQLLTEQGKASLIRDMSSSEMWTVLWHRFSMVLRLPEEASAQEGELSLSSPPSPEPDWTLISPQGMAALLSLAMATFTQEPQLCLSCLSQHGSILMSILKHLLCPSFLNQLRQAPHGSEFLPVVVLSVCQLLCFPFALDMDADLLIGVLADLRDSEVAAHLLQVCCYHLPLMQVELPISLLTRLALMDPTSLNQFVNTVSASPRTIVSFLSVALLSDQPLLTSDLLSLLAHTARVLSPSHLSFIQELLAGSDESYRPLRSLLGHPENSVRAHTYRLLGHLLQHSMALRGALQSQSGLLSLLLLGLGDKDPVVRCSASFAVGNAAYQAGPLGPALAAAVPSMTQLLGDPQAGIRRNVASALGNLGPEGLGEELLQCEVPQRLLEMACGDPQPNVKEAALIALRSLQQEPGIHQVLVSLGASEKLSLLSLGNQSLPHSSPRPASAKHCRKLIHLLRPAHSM
# Sequence of Serine/threonine-protein kinase Nek9 (Homo sapiens) (Q8TD19 whole entry): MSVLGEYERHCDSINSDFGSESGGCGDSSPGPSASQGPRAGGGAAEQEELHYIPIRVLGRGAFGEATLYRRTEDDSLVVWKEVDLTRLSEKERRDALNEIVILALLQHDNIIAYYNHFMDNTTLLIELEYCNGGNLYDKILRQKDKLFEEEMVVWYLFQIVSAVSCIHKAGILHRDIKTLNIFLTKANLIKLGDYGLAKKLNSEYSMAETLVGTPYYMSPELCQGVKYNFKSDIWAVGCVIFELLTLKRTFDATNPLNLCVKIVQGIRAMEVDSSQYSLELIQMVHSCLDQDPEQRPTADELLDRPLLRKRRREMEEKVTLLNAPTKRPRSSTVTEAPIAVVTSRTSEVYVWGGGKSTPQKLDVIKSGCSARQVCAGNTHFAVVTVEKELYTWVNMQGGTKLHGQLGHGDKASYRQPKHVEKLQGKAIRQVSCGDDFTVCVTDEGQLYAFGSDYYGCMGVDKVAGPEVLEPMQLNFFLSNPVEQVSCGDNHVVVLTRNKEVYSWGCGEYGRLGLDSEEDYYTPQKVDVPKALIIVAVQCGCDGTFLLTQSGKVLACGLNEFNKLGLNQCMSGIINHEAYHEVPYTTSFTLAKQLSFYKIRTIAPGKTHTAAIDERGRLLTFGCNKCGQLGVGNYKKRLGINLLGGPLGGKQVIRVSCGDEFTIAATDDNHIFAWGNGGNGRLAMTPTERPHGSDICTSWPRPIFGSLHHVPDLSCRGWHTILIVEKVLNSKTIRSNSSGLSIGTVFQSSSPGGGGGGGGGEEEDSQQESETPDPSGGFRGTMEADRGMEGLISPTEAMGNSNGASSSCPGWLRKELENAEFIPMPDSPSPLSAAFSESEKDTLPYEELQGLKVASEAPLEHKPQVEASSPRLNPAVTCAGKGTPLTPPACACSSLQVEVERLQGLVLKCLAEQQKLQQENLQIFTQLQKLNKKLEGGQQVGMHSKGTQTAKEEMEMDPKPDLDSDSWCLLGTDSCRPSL
# Sequence of ALK tyrosine kinase receptor (Homo sapiens) (Q9UM73 19-1620 limits assumed): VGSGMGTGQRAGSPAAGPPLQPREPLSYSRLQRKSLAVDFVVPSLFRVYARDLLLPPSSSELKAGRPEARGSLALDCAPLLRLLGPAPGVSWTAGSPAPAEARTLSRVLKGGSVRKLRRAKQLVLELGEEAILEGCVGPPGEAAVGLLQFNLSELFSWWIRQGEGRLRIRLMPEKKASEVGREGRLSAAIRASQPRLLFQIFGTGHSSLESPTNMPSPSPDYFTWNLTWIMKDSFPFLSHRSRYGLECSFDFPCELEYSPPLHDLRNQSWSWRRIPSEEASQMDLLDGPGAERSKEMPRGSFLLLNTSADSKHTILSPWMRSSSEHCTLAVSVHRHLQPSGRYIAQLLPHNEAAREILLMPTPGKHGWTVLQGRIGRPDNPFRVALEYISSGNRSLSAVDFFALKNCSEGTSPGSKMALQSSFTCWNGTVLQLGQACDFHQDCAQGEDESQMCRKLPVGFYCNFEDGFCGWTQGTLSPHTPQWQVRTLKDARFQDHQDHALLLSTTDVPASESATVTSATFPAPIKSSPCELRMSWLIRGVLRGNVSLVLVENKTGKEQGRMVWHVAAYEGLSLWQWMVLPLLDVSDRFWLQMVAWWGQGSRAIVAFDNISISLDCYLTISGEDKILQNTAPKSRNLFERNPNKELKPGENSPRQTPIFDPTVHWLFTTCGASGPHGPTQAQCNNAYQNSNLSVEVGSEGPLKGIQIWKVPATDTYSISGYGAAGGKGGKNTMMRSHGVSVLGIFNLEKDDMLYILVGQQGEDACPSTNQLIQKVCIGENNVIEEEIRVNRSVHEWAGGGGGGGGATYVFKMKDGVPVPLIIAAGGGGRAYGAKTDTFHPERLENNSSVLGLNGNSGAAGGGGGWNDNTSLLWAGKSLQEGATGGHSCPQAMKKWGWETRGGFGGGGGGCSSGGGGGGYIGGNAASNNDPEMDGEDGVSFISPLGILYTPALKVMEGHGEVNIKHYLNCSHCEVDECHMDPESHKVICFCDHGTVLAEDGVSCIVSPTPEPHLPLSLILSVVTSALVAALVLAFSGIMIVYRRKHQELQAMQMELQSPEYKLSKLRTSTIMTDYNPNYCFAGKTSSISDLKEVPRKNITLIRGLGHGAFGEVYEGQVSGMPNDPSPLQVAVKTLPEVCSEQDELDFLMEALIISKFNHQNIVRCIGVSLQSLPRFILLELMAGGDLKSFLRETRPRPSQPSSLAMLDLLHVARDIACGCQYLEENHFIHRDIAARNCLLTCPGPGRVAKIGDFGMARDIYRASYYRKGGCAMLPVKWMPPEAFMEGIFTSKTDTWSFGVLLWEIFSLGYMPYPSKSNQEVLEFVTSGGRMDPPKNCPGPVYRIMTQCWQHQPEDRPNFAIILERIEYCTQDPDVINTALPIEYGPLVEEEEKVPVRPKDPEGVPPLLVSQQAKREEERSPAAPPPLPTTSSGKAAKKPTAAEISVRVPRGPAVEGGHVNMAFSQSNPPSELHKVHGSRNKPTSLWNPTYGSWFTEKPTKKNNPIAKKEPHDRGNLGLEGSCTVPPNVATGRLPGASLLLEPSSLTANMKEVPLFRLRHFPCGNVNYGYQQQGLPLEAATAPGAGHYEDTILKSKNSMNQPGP
# Sequence of Death-associated protein kinase 2 (Homo sapiens) (Q9UIK4 whole entry, looked up): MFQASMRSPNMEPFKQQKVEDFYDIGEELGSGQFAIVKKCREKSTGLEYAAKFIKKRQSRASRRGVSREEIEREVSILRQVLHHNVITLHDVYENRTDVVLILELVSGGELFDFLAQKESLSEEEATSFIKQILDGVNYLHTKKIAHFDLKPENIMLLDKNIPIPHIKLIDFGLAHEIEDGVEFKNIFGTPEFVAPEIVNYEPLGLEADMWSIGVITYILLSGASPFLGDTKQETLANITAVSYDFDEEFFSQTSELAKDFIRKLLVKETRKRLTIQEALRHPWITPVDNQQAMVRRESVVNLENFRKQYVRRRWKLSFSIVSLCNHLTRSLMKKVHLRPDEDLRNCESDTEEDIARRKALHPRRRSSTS
Compound,residual activity [1] [%],residual activity [2] [%],residual activity [3] [%],residual activity [4] [%],residual activity [5] [%],residual activity [6] [%],residual activity [7] [%],residual activity [8] [%],residual activity [9] [%],residual activity [10] [%],residual activity [11] [%],residual activity [12] [%],residual activity [13] [%],residual activity [14] [%],residual activity [15] [%],residual activity [16] [%],residual activity [17] [%],residual activity [18] [%],inhibition [19] [%],inhibition (Histamine H4 receptor) [%],further results
CNCc1ccccc1-c1csc([C@H](C)Nc2nc(C)nc3cc(OC)c(OC)cc23)c1 [BAY-294],100,100,100,100,76,91,100,100,87,88,100,100,75,71,100,73,91,73,93.8,67,residual activity [20]: 87%; residual activity [21]: 94%; residual activity [22]: 87%; residual activity [23]: 100%; residual activity [24]: 74%; residual activity [25]: 100%; Ki [26]: 1470 nM; residual activity [27]: 96%; inhibition [28]: 89.1%; Ki ([29]; read-out: Ki): 93.5 nM; Ki ([29]; read-out: pKi (converted)): 92.3 nM; residual activity [30]: 100%; residual activity [31]: 92%; residual activity [32]: 100%
CNCc1ccccc1-c1csc([C@@H](C)Nc2nc(C)nc3cc(OC)c(OC)cc23)c1 [BAY-293],93,100,75,99,74,80,100,88,86,92,83,100,83,63,100,79,87,67,56.5,42.1,residual activity [20]: 47%; residual activity [21]: 94%; residual activity [22]: 83%; residual activity [23]: 90%; residual activity [24]: 55%; residual activity [25]: 100%; Ki [26]: 512 nM; residual activity [27]: 90%; inhibition [28]: 88.8%; Ki ([29]; read-out: Ki): 181 nM; Ki ([29]; read-out: pKi (converted)): 170 nM; residual activity [30]: 79%; residual activity [31]: 84%; residual activity [32]: 85%
